According to ChEMBL document CHEMBL4837256, “Discovery and Characterization of a Rapidly Fungicidal and Minimally Toxic Peptoid against Cryptococcus neoformans” (ACS Med Chem Lett, 2021):
≈ marks a conversion by molar mass, not a printed value. Calls of active or inactive are those of the source. The rule behind the calls is not given here. Where a SMILES comes first, the peptide text is derived from it. [ ]: non-standard residue; d: D form. N(tridecyl)Gly = CCCCCCCCCCCCCNCC(=O)O; Gly(N-2-aminoethyl) = NCCNCC(=O)O; Gly(N-cHex) = O=C(O)CNC1CCCCC1; Nlys = NCCCCNCC(=O)O; Sar = CNCC(=O)O

Experiments:
[1] = Selectivity ratio of TD50 for human HepG2 cells to MIC for Cryptococcus neoformans H99S; assay type: toxicity
Cryptococcus neoformans [2] = assay: Antifungal activity against Cryptococcus neoformans H99S assessed as inhibition of fungal growth measured after 72 hrs by Plate reader assay; assay type: functional
[3] = Cytotoxicity against human HepG2 cells assessed as cell death measured after 72 hrs by MTT assay; assay type: cell-based; conditions: read-out: TD50
Cryptococcus neoformans [4] = assay: Antifungal activity against Cryptococcus neoformans assessed as assessed as half life for fungal killing; assay type: functional, organism-based
Klebsiella pneumoniae = assay: Antibacterial activity against Klebsiella pneumoniae ATCC 13883 assessed as inhibition of bacterial growth measured after 24 hrs by Plate reader method; assay type: functional
Escherichia coli = assay: Antibacterial activity against Escherichia coli ATCC 25922 assessed as inhibition of bacterial growth measured after 24 hrs by Plate reader method; assay type: functional
[5] = Selectivity ratio of HC10 for human RBC to MIC for Cryptococcus neoformans H99S; assay type: toxicity; conditions: red blood cells (RBC)
[6] = Cytotoxicity against human HaCaT cells assessed as cell death measured after 72 hrs by MTT assay; assay type: cell-based; conditions: read-out: TD50
[7] = Selectivity ratio of TD50 for human HaCaT cells to MIC for Cryptococcus neoformans H99S; assay type: toxicity
Enterococcus faecalis = assay: Antibacterial activity against Enterococcus faecalis ATCC 29212 assessed as inhibition of bacterial growth measured after 24 hrs by Plate reader method; assay type: functional
Pseudomonas aeruginosa = assay: Antibacterial activity against Pseudomonas aeruginosa ATCC 25619 assessed as inhibition of bacterial growth measured after 24 hrs by Plate reader method; assay type: functional
[8] = Protein binding in human serum at 100 ug/ml measured after 24 hrs by RP-HPLC method; assay type: ADME, cell-free; conditions: at 100 µg/mL
Candida albicans [9] = assay: Antifungal activity against Candida albicans ATCC10231 assessed as inhibition of biofilm formation measured after 24 hrs by fluorescence based plate reader assay; assay type: functional
[10] = Stability of compound assessed as trypsin-mediated compound degradation at 2 mg/ml measured after 24 hrs by RP-HPLC method; assay type: ADME; conditions: isolated protein
[11] = Selectivity ratio of MIC for Cryptococcus gattii R272 ATCC MYA-4094 to MIC for Cryptococcus neoformans H99S measured after 72 hrs by Plate reader assay; assay type: functional
Enterococcus faecium = assay: Antibacterial activity against Enterococcus faecium ATCC 6569 assessed as inhibition of bacterial growth measured after 24 hrs by Plate reader method; assay type: functional
Cryptococcus neoformans [12] = assay: […] antifungal activity against Cryptococcus neoformans H99S assessed as fractional inhibitory concentration index incubated for 72 hrs in presence of 0.03 to 2 ug/ml Amphotericin B by checkerboard microdilution assay; assay type: functional
[13] = Selectivity ratio of MIC for Cryptococcus gattii R265 ATCC MYA-4093 to MIC for Cryptococcus neoformans H99S measured after 72 hrs by Plate reader assay; assay type: functional
Erythrocyte = assay: Hemolytic activity in human RBC measured after 1 hr by microplate reader method; assay type: ADME, cell-based
Lipid bilayer = assay: Induction of membrane disruption in calcein loaded PC:PE:PS:Ergosterol (4:2:1:0.1) liposomes mimicking Cryptococcus neoformans H99S membrane assessed as increase in fluorescence intensity measured after 1 hr by liposome assay
Cryptococcus neoformans [14] = assay: Antifungal activity against Cryptococcus neoformans H99S assessed as dead cells at 12.5 ug/ml measured after 30 mins by time-to-kill assay; assay type: functional; conditions: dose 12.5 µg/ml, 0.5 h
Candida albicans [15] = assay: Antifungal activity against Candida albicans ATCC10231 assessed as inhibition of fungal growth measured after 24 hrs by Plate reader assay; assay type: functional
[16] = Antifungal activity against Cryptococcus gattii R272 ATCC MYA-4094 assessed as inhibition of fungal growth measured after 72 hrs by Plate reader assay; assay type: functional, Cryptococcus gattii VGI
[17] = Selectivity ratio of TD50 for human HPL1A cells to MIC for Cryptococcus neoformans H99S; assay type: toxicity
Cryptococcus neoformans [18] = assay: Indifferent antifungal activity against Cryptococcus neoformans H99S assessed as fractional inhibitory concentration index incubated for 72 hrs in presence of 0.25 to 16 ug/ml flucytosine by checkerboard microdilution assay; assay type: functional
[19] = Antifungal activity against Cryptococcus gattii R265 ATCC MYA-4093 assessed as inhibition of fungal growth measured after 72 hrs by Plate reader assay; assay type: functional, Cryptococcus gattii VGI
Cryptococcus neoformans [20] = assay: Antifungal activity against Cryptococcus neoformans H99S assessed as inhibition of fungal growth preincubated with human serum for 1 hr followed by incubation with fungus and measured after 72 hrs by Plate reader method; assay type: functional; conditions: time 73 hrs
Cryptococcus neoformans [21] = assay: Indifferent antifungal activity against Cryptococcus neoformans H99S assessed as fractional inhibitory concentration index incubated for 72 hrs in presence of 0.5 to 32 ug/ml fluconazole by checkerboard microdilution assay; assay type: functional
Cryptococcus neoformans [22] = assay: Antifungal activity against Cryptococcus neoformans H99S assessed as elimination of viable cells at 12.5 ug/ml measured after 1 hr by Plate reader assay; assay type: functional; conditions: dose 12.5 µg/ml
[23] = Cytotoxicity against mouse 3T3 cells assessed as cell death measured after 72 hrs by MTT assay; assay type: cell-based; conditions: read-out: TD50
[24] = Cytotoxicity against human HPL1A cells assessed as cell death measured after 72 hrs by MTT assay; assay type: cell-based; conditions: read-out: TD50
Staphylococcus aureus = assay: Antibacterial activity against Staphylococcus aureus ATCC 29213 assessed as inhibition of bacterial growth measured after 24 hrs by Plate reader method; assay type: functional
Cryptococcus neoformans [25] = assay: Antifungal activity against Cryptococcus neoformans H99S assessed as half life for fungal killing at 12.5 ug/ml by Plate reader assay; assay type: functional, organism-based; conditions: dose 12.5 µg/ml
[26] = Selectivity ratio of TD50 for mouse 3T3 cells to MIC for Cryptococcus neoformans H99S; assay type: toxicity
[27] = system: Mycolicibacterium smegmatis; assay: Antibacterial activity against Mycobacterium smegmatis assessed as inhibition of bacterial growth measured after 72 hrs by Plate reader method; assay type: functional
Acinetobacter baumannii = assay: Antibacterial activity against Acinetobacter baumannii ATCC 19606 assessed as inhibition of bacterial growth measured after 24 hrs by Plate reader method; assay type: functional; conditions: ATCC 19606 = CIP 70.34 = JCM 6841
Cryptococcus neoformans [28] = assay: Fungicidal activity against Cryptococcus neoformans H99S assessed as fungal killing at 12.5 ug/ml measured after drug wash-out; assay type: functional, organism-based; conditions: dose 12.5 µg/ml

`CCCCCCCCCCCCCNCC(=O)N(CC(=O)N(C)CC(=O)N(CCN)CC(=O)N(CC(N)=O)C1CCCCC1)C1CCCCC1` showed a selectivity ratio [1] of 27, an MIC (Cryptococcus neoformans [2]) of 3.13 µg/mL (≈ 4.43 µM) and a CC50 at 72 h [3] of 83 µg/mL (≈ 118 µM).

`CCCCCCCCCCCCCNCC(=O)N(CCCCN)CC(=O)N(CC(N)=O)Cc1ccco1` gave a T1/2 (Cryptococcus neoformans [4]) of 30 min.

`CCCCCCCCCCCCCNCC(=O)N(CC(=O)N(CCCCN)CC(=O)N(CCN)CC(=O)N(CC(N)=O)C1CCCCC1)C1CCCCC1` (H-[N(tridecyl)Gly][Gly(N-cHex)][Nlys][Gly(N-2-aminoethyl)][Gly(N-cHex)]-NH2) showed an MIC (Klebsiella pneumoniae) of 100 µg/mL (≈ 131 µM), an MIC (Escherichia coli) of 12.5 µg/mL (≈ 16.4 µM) and a selectivity ratio [5] of 49. It also gave a CC50 at 72 h [6] of 54 µg/mL (≈ 70.8 µM), a selectivity ratio [7] of 35 and an MIC (Enterococcus faecalis) of 6.25 µg/mL (≈ 8.19 µM). For the same compound, the MIC (Pseudomonas aeruginosa) was 100 µg/mL (≈ 131 µM), the PB [8] was “Not Active” and the selectivity ratio [1] was 120. For the same compound, the MIC (Candida albicans [9]) was 100 µg/mL (≈ 131 µM), the Stabilty [10] was “Stable” and the Selectivity ratio [11] was 2. The MIC (Enterococcus faecium) was 6.25 µg/mL (≈ 8.19 µM), the “fractional inhibitory concentration index (FICI)” value (Cryptococcus neoformans [12]) was 0.75 and the Selectivity ratio [13] was 2. The MIC (Cryptococcus neoformans [2]) was 1.56 µg/mL (≈ 2.04 µM), the HC10 (Erythrocyte) was 77 µg/mL and the Activity (Lipid bilayer) was “Active”. It also gave an Activity (Cryptococcus neoformans [14]) greater than 50%, an MIC (Candida albicans [15]) of 25 µg/mL (≈ 32.8 µM) and an MIC [16] of 3.13 µg/mL (≈ 4.1 µM). The selectivity ratio [17] was 47, the “fractional inhibitory concentration index (FICI)” value (Cryptococcus neoformans [18]) was 2 and the MIC [19] was 3.13 µg/mL (≈ 4.1 µM). For the same compound, the MIC (Cryptococcus neoformans [20]) was 3.13 µg/mL (≈ 4.1 µM), the “fractional inhibitory concentration index (FICI)” value (Cryptococcus neoformans [21]) was 2 and the Activity (Cryptococcus neoformans [22]) was 100%. The CC50 at 72 h [23] was 59 µg/mL (≈ 77.3 µM), the CC50 at 72 h [24] was 74 µg/mL (≈ 97 µM) and the MIC (Staphylococcus aureus) was 6.25 µg/mL (≈ 8.19 µM). For the same compound, the T1/2 (Cryptococcus neoformans [25]) was 6.5 min, the selectivity ratio [26] was 38 and the MIC [27] was 3.13 µg/mL (≈ 4.1 µM). For the same compound, the MIC (Acinetobacter baumannii) was 25 µg/mL (≈ 32.8 µM), the CC50 at 72 h [3] was 189 µg/mL (≈ 248 µM) and the Activity (Cryptococcus neoformans [28]) was “Active”.

`CCCCCCCCCCCCCNCC(=O)N(CC(=O)N(CCCCN)CC(=O)N(CCN)CC(=O)N(C)CC(N)=O)C1CCCCC1` (H-[N(tridecyl)Gly][Gly(N-cHex)][Nlys][Gly(N-2-aminoethyl)][Sar]-NH2) gave an MIC (Cryptococcus neoformans [2]) of 6.25 µg/mL (≈ 8.99 µM) and a CC50 at 72 h [3] greater than 200 µg/mL.

Work on `CCCCCCCCCCCCCNCC(=O)N(CC(=O)N(CCCCN)CC(=O)N(C)CC(=O)N(CC(N)=O)C1CCCCC1)C1CCCCC1` (H-[N(tridecyl)Gly][Gly(N-cHex)][Nlys][Sar][Gly(N-cHex)]-NH2) yielded a selectivity ratio [1] of 27, an MIC (Cryptococcus neoformans [2]) of 3.13 µg/mL (≈ 4.26 µM) and a CC50 at 72 h [3] of 84 µg/mL (≈ 114 µM).

Compound `CCCCCCCCCCCCCNCC(=O)N(C)CC(=O)N(CCCCN)CC(=O)N(CCN)CC(=O)N(CC(N)=O)C1CCCCC1` (H-[N(tridecyl)Gly][Sar][Nlys][Gly(N-2-aminoethyl)][Gly(N-cHex)]-NH2) has an MIC (Cryptococcus neoformans [2]) of 6.25 µg/mL (≈ 8.99 µM) and a CC50 at 72 h [3] greater than 200 µg/mL.

Work on `CNCC(=O)N(CC(=O)N(CCCCN)CC(=O)N(CCN)CC(=O)N(CC(N)=O)C1CCCCC1)C1CCCCC1` (H-[Sar][Gly(N-cHex)][Nlys][Gly(N-2-aminoethyl)][Gly(N-cHex)]-NH2) yielded an MIC (Cryptococcus neoformans [2]) greater than 50 µg/mL and a CC50 at 72 h [3] greater than 200 µg/mL.

With `C[C@@H]1[C@H](O)[C@@H](C)/C=C/C=C/C=C/C=C/C=C/C=C/C=C/[C@H](O[C@@H]2O[C@H](C)[C@@H](O)[C@H](N)[C@@H]2O)C[C@@H]2O[C@](O)(C[C@@H](O)C[C@@H](O)[C@H](O)CC[C@@H](O)C[C@@H](O)CC(=O)O[C@H]1C)C[C@H](O)[C@H]2C(=O)O` [AMPHOTERICIN B] the MIC (Cryptococcus neoformans [2]) was 0.25 µg/mL (≈ 0.271 µM) and the T1/2 (Cryptococcus neoformans [4]) was 240 min.

Work on `OC(Cn1cncn1)(Cn1cncn1)c1ccc(F)cc1F` [FLUCONAZOLE] yielded an MIC (Cryptococcus neoformans [2]) of 2 µg/mL (≈ 6.53 µM).

With `Nc1nc(=O)[nH]cc1F` [FLUCYTOSINE] the MIC (Cryptococcus neoformans [2]) was 2 µg/mL (≈ 15.5 µM).
